Values quoted from earlier work as cited in patent US20230201147A1, “COCRYSTAL ANTIOXIDANTS OF PROTOCATECHUIC ACID WITH L-THEANINE FOR THE TREATMENT OF OXIDATIVE STRESS AND INFLAMMATORY CONDITIONS” (priority 2020, published 2023).

System: thrombin-stimulated thromboxane formation
Settings: whole blood

Structure (SMILES): CCNC(=O)CC[C@H](N)C(=O)O [L-theanine, N-ethyl-L-glutamine]
- inhibition of thrombin-stimulated thromboxane formation: potent inhibitor
